The text below walks through data of US9023789B2, “Amylin analogs and pharmaceutical compositions thereof” (Novo Nordisk A/S, priority 2012, dated 2015).

As a reminder, the IC50 is the point on the concentration scale where inhibition reaches its midpoint.

Molecules are shown by their SMILES. Numbered stars: 1 amine (or outer) side, 2 acyl side, 3 side chain; on linkers, the order of the positions; unused ones are H or OH. Bridge positions count the residues as written; N and C are the ends. Side chains are listed from the residue outwards. Peptide text beside a SMILES is read from it. * marks the point of attachment. C20 diacid = O=C(O)CCCCCCCCCCCCCCCCCCC(=O)*; γGlu = O=C(O)[C@H](CCC(=O)[*:2])N[*:1]; AEEA = NCCOCCOCC(=O)O

In one experiment the target is T1, human calcitonin receptor (Homo sapiens, UniProt P30988).
T1 construct: expressed in transfected cells
T1 sequence (P30988 25-474): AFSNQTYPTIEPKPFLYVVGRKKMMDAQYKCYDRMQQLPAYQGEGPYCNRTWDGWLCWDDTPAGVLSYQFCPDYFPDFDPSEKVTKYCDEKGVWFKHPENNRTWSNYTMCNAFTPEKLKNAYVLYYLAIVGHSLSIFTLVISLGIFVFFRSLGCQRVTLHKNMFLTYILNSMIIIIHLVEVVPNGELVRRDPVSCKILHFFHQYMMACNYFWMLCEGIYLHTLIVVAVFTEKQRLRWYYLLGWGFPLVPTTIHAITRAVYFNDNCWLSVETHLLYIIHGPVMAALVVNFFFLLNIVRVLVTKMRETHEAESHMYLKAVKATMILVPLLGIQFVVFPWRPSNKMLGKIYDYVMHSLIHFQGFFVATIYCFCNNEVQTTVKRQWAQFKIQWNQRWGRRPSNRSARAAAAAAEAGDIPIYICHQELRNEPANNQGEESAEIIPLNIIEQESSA
The experiment can be described thus: ASSAY (VII) binding to the human calcitonin receptor (SPA, 125I-Calcitonin).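 Note: cell membranes (35 ng/µL) combined with SPA beads in 40 µL of pH 7.4 Hepes buffer, 384-well format, signal counted on a TopCounter instrument.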
Settings: not given
Take `CC[C@H](C)[C@H](NC(=O)[C@H](C)NC(=O)CNC(=O)[C@H](Cc1ccccc1)NC(=O)[C@H](CC(N)=O)NC(=O)[C@@H]1CCCN1C(=O)[C@H](CO)NC(=O)[C@H](CO)NC(=O)[C@H](Cc1c[nH]cn1)NC(=O)[C@H](CCCNC(=N)N)NC(=O)[C@H](CC(C)C)NC(=O)[C@H](Cc1ccccc1)NC(=O)[C@H](CCCCN)NC(=O)[C@H](C)NC(=O)[C@H](CC(C)C)NC(=O)[C@H](CCCNC(=N)N)NC(=O)[C@H](CCC(N)=O)NC(=O)[C@@H](NC(=O)[C@H](C)NC(=O)[C@@H]1CSSC[C@H](NC(=O)[C@@H](N)CCCCNC(=O)COCCOCCNC(=O)CC[C@H](NC(=O)CCCCCCCCCCCCCCCCCCC(=O)O)C(=O)O)C(=O)N[C@@H](CC(N)=O)C(=O)N[C@@H]([C@@H](C)O)C(=O)N[C@@H](C)C(=O)N[C@@H]([C@@H](C)O)C(=O)N1)[C@@H](C)O)C(=O)N1CCC[C@H]1C(=O)N[C@@H](CO)C(=O)N[C@@H](CO)C(=O)N[C@H](C(=O)N1CCC[C@H]1C(=O)N[C@H](C(=O)NCC(=O)N[C@@H](CO)C(=O)N[C@@H](CC(N)=O)C(=O)N[C@H](C(=O)N[C@@H](Cc1ccc(O)cc1)C(N)=O)[C@@H](C)O)C(C)C)[C@@H](C)O` [Example 74] (H-K([AEEA-γGlu-C20 diacid])CNTATCATQRLAKFLRHSSPNFGAIPSSTPVGSNTY-NH2; disulfide 2-7; N-terminus assumed): the IC50 came out at 79.9 nM.

The same experiment, now with this note: read-out: hCTR bind IC50.
For the compound `CC[C@H](C)[C@H](NC(=O)[C@H](C)NC(=O)CNC(=O)[C@H](Cc1ccccc1)NC(=O)[C@H](CC(N)=O)NC(=O)[C@@H]1CCCN1C(=O)[C@H](CO)NC(=O)[C@H](CO)NC(=O)[C@H](Cc1c[nH]cn1)NC(=O)[C@H](CCCNC(=N)N)NC(=O)[C@H](CC(C)C)NC(=O)[C@H](Cc1ccccc1)NC(=O)[C@H](CC(N)=O)NC(=O)[C@H](C)NC(=O)[C@H](CC(C)C)NC(=O)[C@H](CCCNC(=N)N)NC(=O)[C@H](CCC(N)=O)NC(=O)[C@@H](NC(=O)[C@H](C)NC(=O)[C@@H]1CSSC[C@H](NC(=O)[C@@H](N)CCCCNC(=O)CC[C@H](NC(=O)CCCCCCCCCCCCCCCCCCC(=O)O)C(=O)O)C(=O)N[C@@H](CC(N)=O)C(=O)N[C@@H]([C@@H](C)O)C(=O)N[C@@H](C)C(=O)N[C@@H]([C@@H](C)O)C(=O)N1)[C@@H](C)O)C(=O)N1CCC[C@H]1C(=O)N[C@@H](CO)C(=O)N[C@@H](CO)C(=O)N[C@H](C(=O)N[C@@H](CC(N)=O)C(=O)N[C@H](C(=O)NCC(=O)N[C@@H](CO)C(=O)N[C@@H](CCCCN)C(=O)N[C@H](C(=O)N[C@@H](Cc1ccc(O)cc1)C(N)=O)[C@@H](C)O)C(C)C)[C@@H](C)O` [Example 35] (H-K([γGlu-C20 diacid])CNTATCATQRLANFLRHSSPNFGAIPSSTNVGSKTY-NH2; disulfide 2-7; N-terminus assumed), the IC50 was determined as 48.7 nM.

Take `CC[C@H](C)[C@H](NC(=O)[C@H](C)NC(=O)CNC(=O)[C@H](Cc1ccccc1)NC(=O)[C@H](CC(N)=O)NC(=O)[C@@H]1CCCN1C(=O)[C@H](CO)NC(=O)[C@H](CO)NC(=O)[C@H](Cc1c[nH]cn1)NC(=O)[C@H](CCCNC(=N)N)NC(=O)[C@H](CC(C)C)NC(=O)[C@H](Cc1ccccc1)NC(=O)[C@H](CCC(=O)O)NC(=O)[C@H](C)NC(=O)[C@H](CC(C)C)NC(=O)[C@H](CCCNC(=N)N)NC(=O)[C@H](CCC(N)=O)NC(=O)[C@@H](NC(=O)[C@H](C)NC(=O)[C@@H]1CSSC[C@H](NC(=O)[C@H](CCCCN)NC(=O)CC[C@H](NC(=O)CCCCCCCCCCCCCCCCCCC(=O)O)C(=O)O)C(=O)N[C@@H](CC(N)=O)C(=O)N[C@@H]([C@@H](C)O)C(=O)N[C@@H](C)C(=O)N[C@@H]([C@@H](C)O)C(=O)N1)[C@@H](C)O)C(=O)N1CCC[C@H]1C(=O)N[C@@H](CO)C(=O)N1CCC[C@H]1C(=O)N[C@H](C(=O)N[C@@H](CC(N)=O)C(=O)N[C@H](C(=O)NCC(=O)N[C@@H](CO)C(=O)N[C@@H](CC(N)=O)C(=O)N[C@H](C(=O)N[C@@H](Cc1ccc(O)cc1)C(N)=O)[C@@H](C)O)C(C)C)[C@@H](C)O` [Example 37] ({C20 diacid-γGlu}-KCNTATCATQRLAEFLRHSSPNFGAIPSPTNVGSNTY-NH2; disulfide 2-7 (inferred)): the IC50 is 2.18 nM.

Consider `CC[C@H](C)[C@H](NC(=O)[C@H](C)NC(=O)CNC(=O)[C@H](Cc1ccccc1)NC(=O)[C@H](CC(N)=O)NC(=O)[C@@H]1CCCN1C(=O)[C@H](CO)NC(=O)[C@H](CO)NC(=O)[C@H](Cc1c[nH]cn1)NC(=O)[C@H](CCCNC(=N)N)NC(=O)[C@H](CC(C)C)NC(=O)[C@H](Cc1ccccc1)NC(=O)[C@H](CC(N)=O)NC(=O)[C@H](C)NC(=O)[C@H](CC(C)C)NC(=O)[C@H](CCCNC(=N)N)NC(=O)[C@H](CCC(N)=O)NC(=O)[C@@H](NC(=O)[C@H](C)NC(=O)[C@@H]1CSSC[C@H](NC(=O)[C@H](CCCCN)NC(=O)CC[C@H](NC(=O)CCCCCCCCCCCCCCCCCCC(=O)O)C(=O)O)C(=O)N[C@@H](CC(N)=O)C(=O)N[C@@H]([C@@H](C)O)C(=O)N[C@@H](C)C(=O)N[C@@H]([C@@H](C)O)C(=O)N1)[C@@H](C)O)C(=O)N1CCC[C@H]1C(=O)N[C@@H](CO)C(=O)N[C@@H](CO)C(=O)N[C@H](C(=O)N[C@@H](CC(N)=O)C(=O)N[C@H](C(=O)NCC(=O)N[C@@H](CCCNC(=N)N)C(=O)N[C@@H](CC(N)=O)C(=O)N[C@H](C(=O)N[C@@H](Cc1ccc(O)cc1)C(N)=O)[C@@H](C)O)C(C)C)[C@@H](C)O` [Example 39] ({C20 diacid-γGlu}-KCNTATCATQRLANFLRHSSPNFGAIPSSTNVGRNTY-NH2; disulfide 2-7), for which the IC50 came to 19.3 nM.

For the compound `CC[C@H](C)[C@H](NC(=O)[C@H](C)NC(=O)CNC(=O)[C@H](Cc1ccccc1)NC(=O)[C@H](CC(N)=O)NC(=O)[C@@H]1CCCN1C(=O)[C@H](CO)NC(=O)[C@H](CO)NC(=O)[C@H](Cc1c[nH]cn1)NC(=O)[C@H](CCCNC(=N)N)NC(=O)[C@H](CC(C)C)NC(=O)[C@H](Cc1ccccc1)NC(=O)[C@H](CC(N)=O)NC(=O)[C@H](C)NC(=O)[C@H](CC(C)C)NC(=O)[C@H](CCCNC(=N)N)NC(=O)[C@H](CCC(N)=O)NC(=O)[C@@H](NC(=O)[C@H](C)NC(=O)[C@@H]1CSSC[C@H](NC(=O)[C@@H](N)CCCCNC(=O)COCCOCCNC(=O)CC[C@H](NC(=O)CCCCCCCCCCCCCCCCCCC(=O)O)C(=O)O)C(=O)N[C@@H](CC(N)=O)C(=O)N[C@@H]([C@@H](C)O)C(=O)N[C@@H](C)C(=O)N[C@@H]([C@@H](C)O)C(=O)N1)[C@@H](C)O)C(=O)N1CCC[C@H]1C(=O)N[C@@H](CO)C(=O)N[C@@H](CO)C(=O)N[C@H](C(=O)N1CCC[C@H]1C(=O)N[C@H](C(=O)NCC(=O)N[C@@H](CO)C(=O)N[C@@H](Cc1c[nH]cn1)C(=O)N[C@H](C(=O)N[C@@H](Cc1ccc(O)cc1)C(N)=O)[C@@H](C)O)C(C)C)[C@@H](C)O` [Example 57] (H-K([AEEA-γGlu-C20 diacid])CNTATCATQRLANFLRHSSPNFGAIPSSTPVGSHTY-NH2; disulfide 2-7; N-terminus assumed), the IC50 was 15.3 nM.

As for `CC[C@H](C)[C@H](NC(=O)[C@H](C)NC(=O)CNC(=O)[C@H](Cc1ccccc1)NC(=O)[C@H](CC(N)=O)NC(=O)[C@@H]1CCCN1C(=O)[C@H](CO)NC(=O)[C@H](CO)NC(=O)[C@H](Cc1c[nH]cn1)NC(=O)[C@H](CCCNC(=N)N)NC(=O)[C@H](CC(C)C)NC(=O)[C@H](Cc1ccccc1)NC(=O)[C@H](Cc1c[nH]cn1)NC(=O)[C@H](C)NC(=O)[C@H](CC(C)C)NC(=O)[C@H](CCCNC(=N)N)NC(=O)[C@H](CCC(N)=O)NC(=O)[C@@H](NC(=O)[C@H](C)NC(=O)[C@@H]1CSSC[C@H](NC(=O)[C@@H](N)CCCCNC(=O)CC[C@H](NC(=O)CCCCCCCCCCCCCCCCCCC(=O)O)C(=O)O)C(=O)N[C@@H](CC(N)=O)C(=O)N[C@@H]([C@@H](C)O)C(=O)N[C@@H](C)C(=O)N[C@@H]([C@@H](C)O)C(=O)N1)[C@@H](C)O)C(=O)N1CCC[C@H]1C(=O)N[C@@H](CO)C(=O)N[C@@H](CO)C(=O)N[C@H](C(=O)N1CCC[C@H]1C(=O)N[C@H](C(=O)NCC(=O)N[C@@H](CO)C(=O)N[C@@H](CC(N)=O)C(=O)N[C@H](C(=O)N[C@@H](Cc1ccc(O)cc1)C(N)=O)[C@@H](C)O)C(C)C)[C@@H](C)O` [Example 62] (H-K([γGlu-C20 diacid])CNTATCATQRLAHFLRHSSPNFGAIPSSTPVGSNTY-NH2; disulfide 2-7; N-terminus assumed), the 50% inhibitory concentration (IC50) turned out to be 6.17 nM.

On to `CC[C@H](C)[C@H](NC(=O)[C@H](C)NC(=O)CNC(=O)[C@H](Cc1ccccc1)NC(=O)[C@H](CC(N)=O)NC(=O)[C@@H]1CCCN1C(=O)[C@H](CO)NC(=O)[C@H](CO)NC(=O)[C@H](Cc1c[nH]cn1)NC(=O)[C@H](CCCNC(=N)N)NC(=O)[C@H](CC(C)C)NC(=O)[C@H](Cc1ccccc1)NC(=O)[C@H](CCCNC(=N)N)NC(=O)[C@H](C)NC(=O)[C@H](CC(C)C)NC(=O)[C@H](CCCNC(=N)N)NC(=O)[C@H](CCC(N)=O)NC(=O)[C@@H](NC(=O)[C@H](C)NC(=O)[C@@H]1CSSC[C@H](NC(=O)[C@@H](N)CCCCNC(=O)COCCOCCNC(=O)CC[C@H](NC(=O)CCCCCCCCCCCCCCCCCCC(=O)O)C(=O)O)C(=O)N[C@@H](CC(N)=O)C(=O)N[C@@H]([C@@H](C)O)C(=O)N[C@@H](C)C(=O)N[C@@H]([C@@H](C)O)C(=O)N1)[C@@H](C)O)C(=O)N1CCC[C@H]1C(=O)N[C@@H](CO)C(=O)N[C@@H](CO)C(=O)N[C@H](C(=O)N1CCC[C@H]1C(=O)N[C@H](C(=O)NCC(=O)N[C@@H](CO)C(=O)N[C@@H](CC(N)=O)C(=O)N[C@H](C(=O)N[C@@H](Cc1ccc(O)cc1)C(N)=O)[C@@H](C)O)C(C)C)[C@@H](C)O` [Example 64] (H-K([AEEA-γGlu-C20 diacid])CNTATCATQRLARFLRHSSPNFGAIPSSTPVGSNTY-NH2; disulfide 2-7; N-terminus assumed), for which the IC50 is 56 nM.
